Results on three compounds are retold here after patent publication US9149441B2 (priority 2008, dated 2015).

One data set deals with S. Aureus. In words: Vancomycin formulations in S. Aureus septic shock rat model. As to conditions: for Survival: simultaneous treatment group, peritonitis rat model (Table 8), 15 mg/kg twice/day for 3 days. The format is in vivo. The method, then:
The efficacy of vancomycin nanospheres as compared to the solution formulation was determined in a septic shock rat model.
Three scenarios were evaluated:
Group 1. Determination of the efficacy of the encapsulated and solution formulation of vancomycin. [Pre-treatment Group].
The nanospheres and solution vancomycin formulations (15 mg/kg twice/day for 3 days) or blank nanospheres (control) were injected to different groups of animals 4 hrs prior to the animals being injected with S. Aureus (i.p.; 1.0×10^8 cfu/mL). Blood samples (0.5 mL) were obtained to determine the bacterial count at 0, 4, 24, 48, 96 and 120 hrs.
Group 2. Determination of the efficacy of the encapsulated and solution formulations of vancomycin. [Simultaneous treatment Group]
In this set of experiments, S. Aureus bacteria (1.0×10^8 cfu/mL) were administered i.p. and simultaneously the NS and solution gentamicin formulations (15 mg/kg twice/day for 3 days) or blank nanospheres (control) were injected subcutaneously to different groups of rats. Blood samples (0.5 mL) were obtained to determine the bacterial count at 0, 4, 24, 48, 96 and 120 hrs.
Group 3. Determination of the efficacy of the nanosphere and solution formulation of vancomycin. [Delayed treatment Group].
In this set of experiments, S. Aureus bacteria (1.0×10^8 cfu/mL) were administered i.p. to different groups of rats and 4 hrs following infection the NS and solution gentamicin formulations (15 mg/kg twice/day for 3 days) or blank nanospheres (control) were injected. Blood samples (0.5 mL) were obtained to determine the bacterial count at 0, 4, 24, 48, 96 and 120 hrs.

The next data set concerns red blood cells (RBCs). In words: Potassium release from red blood cells (membrane toxicity). The format is cell-based. Particulars: all experimental concentrations; solution effect rising up to 0.08 mg/ml. The source says: Potassium is found in high concentrations inside the red blood cells (RBCs). Any damage to membrane will result in leaking out of potassium from the RBCs.

The subject of another data set is E. Coli. In words: Gentamicin formulations in E. Coli septic shock (peritonitis) rat model. The format is in vivo. As to conditions: for % inhibition of the bacterial growth in the blood / Bact. count (cfu/mL): 120 hrs; for Bact. count (cfu/mL): blood; for Survival: peritonitis rat model (Table 5). The protocol: Gentamicin in the solution and the nanosphere form were tested on rats in order to evaluate the E. Coli distribution in the body, also the two formulations were evaluated in septic shock rat models.
Group 1. Determination of the efficacy of the encapsulated and solution formulation of gentamicin. [Pre-treatment Group].
The nanospheres and solution gentamicin formulations (15 mg/kg twice/day for 3 days) or blank nanospheres (control) were injected to different groups of animals 4 hrs prior to the animals being injected with E. Coli (i.p.; 1.1×10^9 cfu/mL). Blood samples were obtained to determine the bacterial count at 0, 4, 24, 48, 96 and 120 hrs.
Group 2. Determination of the efficacy of the encapsulated and solution formulations of gentamicin. [Simultaneous treatment Group]
In this set of experiments, E. Coli bacteria (1.1×10^9 cfu/mL) were administered i.p. and simultaneously the NS and solution gentamicin formulations (15 mg/kg twice/day for 3 days) or blank nanospheres (control) were injected subcutaneously to different groups of rats. Blood samples were obtained to determine the bacterial count at 0, 4, 24, 48, 96 and 120 hrs.
Group 3. Determination of the efficacy of the nanosphere and solution formulation of gentamicin. [Delayed treatment Group].
In this set of experiments, E. Coli bacteria (1.1×10^9 cfu/mL) were administered i.p. to different groups of rats and 4 hrs following infection the NS and solution gentamicin formulations (15 mg/kg twice/day for 3 days) or blank nanospheres (control) were injected. Blood samples were obtained to determine the bacterial count at 0, 4, 24, 48, 96 and 120 hrs.

`CN[C@H](CC(C)C)C(=O)N[C@H]1C(=O)N[C@@H](CC(N)=O)C(=O)N[C@H]2C(=O)N[C@H]3C(=O)N[C@H](C(=O)N[C@H](C(=O)O)c4cc(O)cc(O)c4-c4cc3ccc4O)[C@H](O)c3ccc(c(Cl)c3)Oc3cc2cc(c3O[C@@H]2O[C@H](CO)[C@@H](O)[C@H](O)[C@H]2O[C@H]2C[C@](C)(N)[C@H](O)[C@H](C)O2)Oc2ccc(cc2Cl)[C@H]1O` [Vancomycin Solution, vancomycin] showed a Survival in the data set with S. Aureus of 40%. Moreover, the “Bacterial count in the blood vs blank BSA nanospheres” value is listed as “significant lower bacterial count” in the data set on S. Aureus (text Group 1, FIG. 14 (prophylactic treatment)) and “significant lower bacterial count” in the data set on S. Aureus (text Group 2, FIG. 15 (simultaneous treatment)).

On to `C[C@@H]1[C@H](O)[C@@H](C)/C=C/C=C/C=C/C=C/C=C/C=C/C=C/[C@H](O[C@@H]2O[C@H](C)[C@@H](O)[C@H](N)[C@@H]2O)C[C@@H]2O[C@](O)(C[C@@H](O)C[C@@H](O)[C@H](O)CC[C@@H](O)C[C@@H](O)CC(=O)O[C@H]1C)C[C@H](O)[C@H]2C(=O)O` [solution formulation of Amphotericin B, Amphotericin B], for which, in the data set on red blood cells (RBCs), the “Potassium release from RBCs” value is on record as “significant release of potassium from the RBCs”.

For gentamicin [Gentamicin Solution], the “% inhibition of the bacterial growth in the blood” value is 15% in the data set with E. Coli (delayed treatment group (Table 7), listed as Solution); “about 15%” in the data set on E. Coli (delayed treatment group (Table 7), listed as gentamicin solution); “about 35%” with E. Coli (prophylactic treatment group (Table 6)); 75% with E. Coli (simultaneous treatment group (Table 4)); “about 75%” with E. Coli (simultaneous treatment group (Table 4), listed as gentamicin solution). The “Bact. count (cfu/mL)” value in the data set with E. Coli (delayed treatment group) turned out to be 110 cfu/mL; in the data set with E. Coli (simultaneous treatment group, 15 mg/kg twice/day for 3 days) it was 35 cfu/mL. The Survival in the data set with E. Coli (simultaneous treatment group) came out at 35%; in the data set with E. Coli (simultaneous treatment group, listed as gentamicin solution) it was 55%; in the data set with S. Aureus, 40%. For the same compound, the “Bacterial count in the blood vs blank BSA nanospheres” value in the data set with S. Aureus (text Group 3, FIG. 16 (delayed treatment)) is given as “significant lower bacterial count”.
